Our source for the melting point values is US6509328B1, “Glutamate receptor antagonists” (Hoffmann-La Roche Inc., priority 1999, dated 2003).

For `C[Si](C)(C)C#Cc1cccc(C2=Nc3ccc(C#Cc4ccccc4)cc3NC(=O)C2)c1`, the melting point – broadly, the temperature of the solid-liquid transition – is 169 to 171 °C (dec.).

On to `Cc1ccc(C#Cc2ccc3c(c2)NC(=O)CC(c2cccc(C#N)c2)=N3)cc1` [Example 3, 3-(4-Oxo-7-p-tolylethynyl-4,5-dihydro-3H-benzo[b][1,4]diazepin-2-yl)-benzonitrile], for which the melting point was 236 to 239 °C (dec.). On to `N#Cc1cccc(C2=Nc3ccc(C#Cc4ccccc4Cl)cc3NC(=O)C2)c1` [Example 4, 3-[7-(2-Chloro-phenylethynyl)-4-oxo-4,5-dihydro-3H-benzo[b][1,4]diazepin-2-yl]-benzonitrile], for which the melting point was 239 to 240 °C (dec.). Under `COc1ccc(-c2ccc3c(c2)NC(=O)CC(c2cccc(C#N)c2)=N3)cc1` [Example 6, 3-[7-(4-Methoxy-phenyl)-4-oxo-4,5-dihydro-3H-benzo[b][1,4]diazepin-2-yl]-benzonitrile] stands 236 to 237 °C (dec.). Under `N#Cc1cccc(C2=Nc3ccc(-c4ccsc4)cc3NC(=O)C2)c1` [Example 7, 3-(4-Oxo-7-thiophen-3-yl-4,5-dihydro-3H-benzo[b][1,4]diazepin-2-yl)-benzonitrile] stands 238 to 243 °C (dec.); under `N#Cc1cccc(C2=Nc3ccc(-c4ccco4)cc3NC(=O)C2)c1` [Example 8, 3-(7-Furan-2-yl-4-oxo-4,5-dihydro-3H-benzo[b][1,4]diazepin-2-yl)-benzonitrile], 205 to 210 °C (dec.). Under `CCc1ccc(-c2ccc3c(c2)NC(=O)CC(c2cccc(C#N)c2)=N3)cc1` [Example 9, 3-[7-(4-Ethyl-phenyl)-4-oxo-4,5-dihydro-3H-benzo[b][1,4]diazepin-2-yl]-benzonitrile] stands 225 to 229 °C (dec.); under `N#Cc1cccc(C2=Nc3ccc(-c4ccccc4)cc3NC(=O)C2)c1` [Example 10, 3-(4-Oxo-7-phenyl-4,5-dihydro-3H-benzo[b][1,4]diazepin-2-yl)-benzonitrile], 238 to 240 °C (dec.).

`O=C1CC(c2cccc(I)c2)=Nc2ccc(C#Cc3ccccc3)cc2N1` [Example 11, 4-(3-Iodo-phenyl)-8-phenylethynyl-1,3-dihydro-benzo[b][1,4]diazepin-2-one]: the melting point is 227 to 229 °C (dec.). Under `O=C1CC(c2ccncc2)=Nc2ccc(C#Cc3ccccc3)cc2N1` [Example 12, 8-Phenylethynyl-4-pyridin-4-yl-1,3-dihydro-benzo[b][1,4]diazepin-2-one] stands 198 to 200 °C (dec.); under `N#Cc1cccc(C2=Nc3ccc(-c4ccoc4)cc3NC(=O)C2)c1` [Example 14, 3-(7-Furan-3-yl-4-oxo-4,5-dihydro-3H-benzo[b][1,4]diazepin-2-yl)-benzonitrile], 228 to 233 °C (dec.). Under `N#Cc1cccc(C2=Nc3ccc(-c4ccc(Cl)cc4)cc3NC(=O)C2)c1` [Example 15, 3-[7-(4-Chloro-phenyl)-4-oxo-4,5-dihydro-3H-benzo[b][1,4]diazepin-2-yl]-benzonitrile] stands 244 to 250 °C (dec.); under `N#Cc1cccc(C2=Nc3ccc(C#Cc4ccc(Cl)cc4)cc3NC(=O)C2)c1` [Example 16, 3-[7-(4-Chloro-phenylethynyl)-4-oxo-4,5-dihydro-3H-benzo[b][1,4]diazepin-2-yl]-benzonitrile], 237 to 240 °C (dec.). Under `O=C1CC(c2cccc(Cl)c2)=Nc2ccc(-c3ccccc3)cc2N1` [Example 19, 4-(3-Chloro-phenyl)-8-phenyl-1,3-dihydro-benzo[b][1,4]diazepin-2-one] stands 208 °C (dec.); under `N#Cc1cccc(C2=Nc3ccc(-c4cccc5ccccc45)cc3NC(=O)C2)c1` [Example 20, 3-(7-Naphthalen-1-yl-4-oxo-4,5-dihydro-3H-benzo[b][1,4]diazepin-2-yl)-benzonitrile], 240 to 245 °C (dec.); under `N#Cc1cccc(C2=Nc3ccc(C#Cc4nccs4)cc3NC(=O)C2)c1` [Example 21, 3-(4-Oxo-7-thiazol-2-ylethynyl-4,5-dihydro-3H-benzo[b][1,4]diazepin-2-yl)-benzonitrile], 230 °C (dec.). With `Cc1ccc(-c2ccc3c(c2)NC(=O)CC(c2cccc(C#N)c2)=N3)cc1` [Example 22, 3-(4-Oxo-7-p-tolyl-4,5-dihydro-3H-benzo[b][1,4]diazepin-2-yl)-benzonitrile], the melting point was 242 to 245 °C (dec.). Consider `O=C1CC(c2sccc2Cl)=Nc2ccc(-c3ccccn3)cc2N1` [Example 23, 4-(3-Chloro-thiophen-2-yl)-8-pyridin-2-yl-1,3-dihydro-benzo[b][1,4]diazepin-2-one], for which the melting point is 220 to 225 °C (dec.). Under `N#Cc1cccc(C2=Nc3ccc(-c4cccs4)cc3NC(=O)C2)c1` [Example 24, 3-(4-Oxo-7-thiophen-2-yl-4,5-dihydro-3H-benzo[b][1,4]diazepin-2-yl)-benzonitrile] stands > 250 °C (dec.). Under `O=C1CC(c2cccs2)=Nc2ccc(I)cc2N1` [Example 25, 8-Iodo-4-thiophen-2-yl-1,3-dihydro-benzo[b][1,4]diazepin-2-one] stands over 260 °C; under `N#Cc1cccc(C2=Nc3ccc(C#Cc4ccccn4)cc3NC(=O)C2)c1` [Example 26, 3-(4-Oxo-7-pyridin-2-ylethynyl-4,5-dihydro-3H-benzo[b][1,4]diazepin-2-yl)-benzonitrile], 229 to 231 °C (dec.). Regarding `N#Cc1cccc(C2=Nc3ccc(-c4ccccn4)cc3NC(=O)C2)c1` [Example 28, 3-(4-Oxo-7-pyridin-2-yl-4,5-dihydro-3H-benzo [b][1,4]diazepin-2-yl)-benzonitrile], the melting point was 243 to 244 °C (dec.).

Regarding `O=C1CC(c2ccsc2)=Nc2ccc(-c3ccccc3)cc2N1` [Example 29, 8-Phenyl-4-thiophen-3-yl-1,3-dihydro-benzo [b][1,4]diazepin-2-one], the melting point was 233 °C (dec.). The value for `Cc1cccc(-c2ccc3c(c2)NC(=O)CC(c2cccc(C#N)c2)=N3)c1` [Example 30, 3-(4-Oxo-7-m-tolyl-4,5-dihydro-3H-benzo [b][1,4]diazepin-2-yl)-benzonitrile] was 248 to 251 °C (dec.); that for `N#Cc1cccc(C2=Nc3ccc(-c4ccc(Cl)c(Cl)c4)cc3NC(=O)C2)c1` [Example 31, 3-[7-(3,4-Dichloro-phenyl)-4-oxo-4,5-dihydro-3H-benzo [b][1,4]diazepin-2-yl]-benzonitrile] was 252 to 255 °C (dec.); that for `O=C1CC(c2cccc(C(F)(F)F)c2)=Nc2ccc(-c3ccccc3)cc2N1` [Example 32, 8-Phenyl-4-(3-trifluoromethyl-phenyl)-1,3-dihydro-benzo [b][1,4]diazepin-2-one] was 210 °C (dec.). The value for `N#Cc1cccc(C2=Nc3ccc(-c4ccccc4Cl)cc3NC(=O)C2)c1` [Example 33, 3-[7-(2-Chloro-phenyl)-4-oxo-4,5-dihydro-3H-benzo [b][1,4]diazepin-2-yl]-benzonitrile] was 240 to 244 °C (dec.); that for `Cc1ccccc1-c1ccc2c(c1)NC(=O)CC(c1sccc1Cl)=N2` [Example 34, 4-(3-Chloro-thiophen-2-yl)-8-o-tolyl-1,3-dihydro-benzo [b][1,4]diazepin-2-one] was 247 to 248 °C (dec.).

Consider `O=C1CC(c2cccc(Cl)c2)=Nc2ccc(C(=O)c3ccccc3)cc2N1` [Example 35, 8-Benzoyl-4-(3-chloro-phenyl)-1,3-dihydro-benzo [b][1,4]diazepin-2-one], for which the melting point is 199 to 202 °C (dec.).

On to `N#Cc1cccc(C2=Nc3ccc(C(=O)c4ccccc4)cc3NC(=O)C2)c1` [Example 36, 3-(7-Benzoyl-4-oxo-4,5-dihydro-3H-benzo [b][1,4]diazepin-2-yl)-benzonitrile], for which the melting point was 207 °C (dec.).

As for `O=C1CC(c2sccc2Cl)=Nc2ccc(-c3ccccc3)cc2N1` [Example 38, 4-(3-Chloro-thiophen-2-yl)-8-phenyl-1,3-dihydro-benzo [b][1,4]diazepin-2-one], the melting point was 228 °C (dec.). Under `COc1cccc(-c2ccc3c(c2)NC(=O)CC(c2cccc(C#N)c2)=N3)c1` [Example 39, 3-[7-(3-Methoxy-phenyl)-4-oxo-4,5-dihydro-3H-benzo [b][1,4]diazepin-2-yl]-benzonitrile] stands 240 to 243 °C (dec.); under `N#Cc1cccc(C2=Nc3ccc(-c4cccnc4)cc3NC(=O)C2)c1` [Example 40, 3-(4-Oxo-7-pyridin-3-yl-4,5-dihydro-3H-benzo [b][1,4]diazepin-2-yl)-benzonitrile], 210 to 214 °C (dec.); under `O=C1CC(c2cccs2)=Nc2ccc(-c3ccc(=O)[nH]c3)cc2N1` [Example 41, 8-(6-Oxo-1,6-dihydro-pyridin-3-yl)-4-thiophen-2-yl-1,3-dihydro-benzo [b][1,4]diazepin-2-one], over 250 °C. Under `O=C1CC(c2cccc(C(F)(F)F)c2)=Nc2ccc(-c3ccc(OCc4ccccc4)nc3)cc2N1` [Example 42, 8-(6-Benzyloxy-pyridin-3-yl)-4-(3-trifluoromethyl-phenyl)-1,3-dihydro-benzo [b][1,4]diazepin-2-one] stands 195 °C (dec.); under `N#Cc1cccc(C2=Nc3ccc(-c4ccc(OC(F)(F)F)cc4)cc3NC(=O)C2)c1` [Example 43, 3-[4-Oxo-7-(4-trifluoromethoxy-phenyl)-4,5-dihydro-3H-benzo [b][1,4]diazepin-2-yl]-benzonitrile], 237 to 241 °C (dec.); under `N#Cc1cccc(C2=Nc3ccc(-c4ccncc4)cc3NC(=O)C2)c1` [Example 44, 3-(4-Oxo-7-pyridin-4-yl-4,5-dihydro-3H-benzo[b][1,4]diazepin-2-yl)-benzonitrile], > 200 °C (dec.). Turning to `N#Cc1cccc(C2=Nc3ccc(C4=CCN(S(=O)(=O)c5ccccc5)CC4)cc3NC(=O)C2)c1` [Example 45, 3-[7-(1-Benzenesulfonyl-1,2,3,6-tetrahydro-pyridin-4-yl)-4-oxo-4,5-dihydro-3H-benzo [b][1,4]diazepin-2-yl]-benzonitrile], the melting point is 92 to 95 °C (dec.).
